Measurements from US9776979B2, “EBI2 modulators” (Sanford-Burnham Medical Research Institute, priority 2013, dated 2017).

What follows are compounds tested against EBI2 (Homo sapiens, UniProt P32249) (assay: Cell-based luminescent assay (EBI2 modulation)). Conditions: not given.
Procedure, shortened: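 Cells plated overnight at 37° C, then exposed to compound at 4-5 uM final with 80 nM 7a,25-OHC agonist for 60 min at 37° C. Luminescence read after 60 min detection at 25° C in the dark; values normalized to neutral and stimulator controls and plate-pattern corrected.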

EBI2, sequence (P32249 whole entry): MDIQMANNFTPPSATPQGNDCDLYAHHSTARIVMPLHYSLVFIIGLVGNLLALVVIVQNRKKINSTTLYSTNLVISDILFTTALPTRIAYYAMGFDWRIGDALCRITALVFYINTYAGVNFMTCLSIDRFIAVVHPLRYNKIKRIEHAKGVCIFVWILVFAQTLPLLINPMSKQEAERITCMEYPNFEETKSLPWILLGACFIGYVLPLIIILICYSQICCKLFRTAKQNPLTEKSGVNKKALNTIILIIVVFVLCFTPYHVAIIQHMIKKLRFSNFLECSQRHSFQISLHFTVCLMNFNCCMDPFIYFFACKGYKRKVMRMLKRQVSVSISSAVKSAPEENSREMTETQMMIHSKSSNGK

| Compound | IC50 [µM] |
| --- | --- |
| O=C(/C=C/c1ccc(Br)cc1)N1CCC(Nc2cc(F)cc(F)c2)CC1 [Compound C15, (2E)-1-{4-[(3,5-difluorophenyl)amino]piperidyl}-3-(4-bromophenyl)prop-2-en-1-one] | < 0.1 |
| O=C(c1cc2cc(Cl)ccc2[nH]1)N1CCC(Nc2ccc(F)cc2F)CC1 [Compound C258, 4-[(2,4-difluorophenyl)amino]piperidyl 5-chloroindol-2-yl ketone] | < 0.1 |

Same assay, conditions: cell-based luminescence; 7a,25-OHC final assay concentration 80 nM; 60 minutes incubation; read-out: IC50

| Compound | IC50 [µM] |
| --- | --- |
| (2E)-1-{4-[(2,5-difluorophenyl)methyl]piperazinyl}-3-phenylprop-2-en-1-one [Compound C350] | < 0.1 |
| O=C(O)c1ccc(CN2CCN(C(=O)c3cc4cc(Cl)ccc4[nH]3)CC2)cc1 [Compound C177, 4-({4-[(5-chloroindol-2-yl)carbonyl]piperazinyl}methyl)benzoic acid] | 0.5 to 5 |
| 4-[(4-bromophenyl)sulfonyl]piperazinyl 5-methylindol-2-yl ketone [Compound C143] | < 0.1 |
| O=C(c1ccc(B(O)O)cc1)N1CCN(C(=O)c2cc3cc(Cl)ccc3[nH]2)CC1 [Compound C409, 4-(4-(5-chloro-1H-indole-2-carbonyl)piperazine-1-carbonyl)phenylboronic acid] | 0.1 to 0.5 |
| Cc1ccc(C(=O)N2CCN(C(=O)/C=C/c3ccc(Br)cc3)CC2)cc1 [Compound C4, (2E)-3-(4-bromophenyl)-1-{4-[(4-methylphenyl)carbonyl]piperazinyl} prop-2-en-1-one] | < 0.1 |
| O=C(c1cc2ccc(Cl)cc2[nH]1)N1CCN(C(=O)c2ccc(F)cc2C(F)(F)F)CC1 [Compound C447, 6-chloroindol-2-yl 4-{[4-fluoro-2-(trifluoromethyl)phenyl]carbonyl}piperazinyl ketone] | 0.1 to 0.5 |
| CCCCN1CCN(C(=O)/C=C/c2ccccc2)CC1 [Compound C312, (2E)-1-(4-butylpiperazinyl)-3-phenylprop-2-en-1-one] | < 0.1 |
| Cc1ccc2[nH]c(C(=S)N3CCN(C(c4ccccc4)c4ccccc4)CC3)cc2c1 [Compound C158, [4-(diphenylmethyl)piperazinyl](5-methylindol-2-yl)methane-1-thione] | < 0.1 |
| O=C(/C=C/c1ccc(Br)cc1)N1CCN(C(=O)C2CCCC2)CC1 [Compound C82, (2E)-3-(4-bromophenyl)-1-[4-(cyclopentylcarbonyl)piperazinyl]prop-2-en-1-one] | < 0.1 |
| O=C(/C=C/c1ccc(Cl)cc1F)N1CCN(C(=O)c2cc3cc(Cl)ccc3[nH]2)CC1 [Compound C300, (2E)-3-(4-chloro-2-fluorophenyl)-1-{4-[(5-chloroindol-2-yl)carbonyl]piperazinyl}prop-2-en-1-one] | < 0.1 |
| (2E)-1-{4-[(3,5-dimethylphenyl)methyl]piperazinyl}-3-phenylprop-2-en-1-one [Compound C340] | < 0.1 |
| O=C(/C=C/c1ccccc1F)N1CCN(C(c2ccccc2)c2ccccc2)CC1 [Compound C113, (2E)-1-[4-(diphenylmethyl)piperazinyl]-3-(2-fluorophenyl)prop-2-en-1-one] | < 0.1 |
| (2E)-1-{4-[(4-bromophenyl)sulfonyl]piperazinyl}-3-(4-chloro-2-fluorophenyl)prop-2-en-1-one [Compound C388] | < 0.1 |
| (2E)-1-{4-[(2-methylphenyl)methyl]piperazinyl}-3-phenylprop-2-en-1-one [Compound C394] | 0.1 to 0.5 |
| O=C(/C=C/c1ccccc1F)N1CCN(S(=O)(=O)c2ccc(Br)cc2)CC1 [Compound C455, (2E)-1-{4-[(4-bromophenyl)sulfonyl]piperazinyl}-3-(2-fluorophenyl)prop-2-en-1-one] | 0.1 to 0.5 |
| O=C(Nc1cccc(Cl)c1)C1CCN(C(=O)c2cc3cc(Cl)ccc3[nH]2)CC1 [Compound C396, {1-[(5-chloroindol-2-yl)carbonyl](4-piperidyl)}-N-(3-chlorophenyl)carboxamide] | < 0.1 |

| Compound | IC50 [µM] |
| --- | --- |
| O=C(/C=C/c1ccc(F)cc1)N1CCN(S(=O)(=O)c2ccc([N+](=O)[O-])cc2)CC1 [Compound C206, (2E)-3-(4-fluorophenyl)-1-{4-[(4-nitrophenyl)sulfonyl]piperazinyl}prop-2-en-1-one] | < 0.1 |
| O=C(C#Cc1ccc(F)cc1)N1CCN(Cc2ccc(Cl)cc2)CC1 [Compound C461, 1-{4-[(4-chlorophenyl)methyl]piperazinyl}-3-(4-fluorophenyl)prop-2-yn-1-one] | 0.1 to 0.5 |
| Cc1ccc2[nH]c(C(=O)N3CCN(Cc4ccc(Cl)c(Cl)c4)CC3)cc2c1 [Compound C328, 4-[(3,4-dichlorophenyl)methyl]piperazinyl 5-methylindol-2-yl ketone] | < 0.1 |
| O=C(c1ccc(B(O)O)cc1)N1CCN(C(=O)c2cc3ccc(Br)cc3[nH]2)CC1 [Compound C382, 4-(4-(6-bromo-1H-indole-2-carbonyl)piperazine-1-carbonyl)phenylboronic acid] | < 0.1 |
| O=C(/C=C/c1ccc(Br)cc1)N1CCN(Cc2ccc(Cl)c(Cl)c2)CC1 [Compound C39, (2E)-1-{4-[(3,4-dichlorophenyl)methyl]piperazinyl}-3-(4-bromophenyl)prop-2-en-1-one] | < 0.1 |
| COC(=O)c1cccc(CN2CCN(C(=O)c3cc4cc(Cl)ccc4[nH]3)CC2)c1 [Compound C358, methyl 3-({4-[(5-chloroindol-2-yl)carbonyl]piperazinyl}methyl)benzoate] | < 0.1 |
| O=C(c1cc2ccccn2n1)N1CCN(C(=O)c2cc3cc(Cl)ccc3[nH]2)CC1 [Compound C278, 5-chloroindol-2-yl 4-(8-hydropyrazolo[1,5-a]pyridin-2-ylcarbonyl)piperazinyl ketone] | 0.1 to 0.5 |
| 1-{4-[(4-fluorophenyl)carbonyl]piperazinyl}-3-[2-(trifluoromethyl)phenyl]prop-2-yn-1-one [Compound C393] | < 0.1 |
| CC(C)CN1CCN(C(=O)/C=C/c2ccccc2)CC1 [Compound C392, (2E)-1-[4-(methylpropyl)piperzinyl]-3-phenylprop-2-en-1-one] | < 0.1 |
| COc1ccc(CN2CCN(C(=O)C#Cc3ccc(Cl)cc3)CC2)cc1 [Compound C372, 3-(4-chlorophenyl)-1-{4-[(4-methoxyphenyl)methyl]piperazinyl}prop-2-yn-1-one] | < 0.1 |
| O=C(c1cc2cc(Cl)ccc2[nH]1)N1CCN(S(=O)(=O)c2ccc(-c3ccccc3)cc2)CC1 [Compound C454, 5-chloroindol-2-yl 4-[(4-phenylphenyl)sulfonyl]piperazinyl ketone] | 0.1 to 0.5 |
| 5-methylindol-2-yl 4-benzylpiperazinyl ketone [Compound C376] | < 0.1 |
| CC(C)(C)c1ccc(S(=O)(=O)N2CCN(C(=O)/C=C/c3ccc(F)cc3)CC2)cc1 [Compound C202, (2E)-1-(4-{[4-(tert-butyl)phenyl]sulfonyl}piperazinyl)-3-(4-fluorophenyl)prop-2-en-1-one] | < 0.1 |
| COc1ccc2cc(C(=O)N3CCN(C(c4ccccc4)c4ccccc4)CC3)[nH]c2c1 [Compound C304, 4-(diphenylmethyl)piperazinyl 6-methoxyindol-2-yl ketone] | < 0.1 |
| 4-(diphenylmethyl)piperazinyl 5-bromoindol-2-yl ketone [Compound C43] | < 0.1 |
| O=C(C#Cc1cc(F)cc(F)c1)N1CCN(Cc2ccc(F)cc2)CC1 [Compound C197, 3-(3,5-difluorophenyl)-1-{4-[(4-fluorophenyl)methyl]piperazinyl}prop-2-yn-1-one] | 0.5 to 5 |
